Values of other authors as cited in US8703719B1, “Method and composition for improved muscle performance” (Bio-Engineered Supplements and Nutrition, Inc., priority 2009, dated 2014).

Conditions: oral; weight training individuals

C[N+](C)(C)CC(=O)[O-] [trimethylglycine (betaine), Trimethylglycine]
increase in bench-throw power compared with placebo: 16% | increase in isometric bench-press force compared with placebo: 28%
